Measured values: patent US4259235A, “Tricyclic nitrogenous compounds having string plant growth regulating properties” (BASF Aktiengesellschaft, priority 1977, dated 1981)

How the values were obtained:
[1] = test system: spring barley; assay: Growth height of spring barley, soil (preemergence) treatment, Example 9; assay type: in vivo, spring barley ("Union" variety); conditions: 30 days
Method: Spring wheat of the "Opal" variety and spring barley of the "Union" variety were grown in the winter half of the year under greenhouse conditions in plastic dishes 11.5 cm in diameter, in a peat substrate provided with sufficient nutrients.
The reductions in growth height caused by the treatment were determined by measuring the height of the plants at the end of the experiment after 30 days' growth, and comparing it with that of untreated plants.

[2] = test system: spring wheat; assay: Growth height of spring wheat, leaf treatment, Example 11; assay type: in vivo, spring wheat ("Opal" variety)
Method: (§1) The test plants--spring wheat ("Opal" variety), spring barley ("Union" variety) and spring rye ("Petkuser" variety)--were grown under greenhouse conditions in plastic dishes 11.5 cm in diameter, in a peat substrate provided with sufficient nutrients.
(§2) Leaf treatment was effected by spraying the plants at a growth height of 11 cm with aqueous formulations of the active ingredients, at three application rates.
(§3) The shortening effect caused by the compounds was shown by measurements of the height of the plants at the end of the experiment.
(§4) The prior art compound N,N,N-trimethyl-N-β-chloroethylammonium chloride (CCC, German Printed Application DAS No. 1,294,734) was used for comparison purposes.

[3] = test system: spring barley; assay: Growth height of spring barley, soil treatment, Example 11; assay type: in vivo, spring barley ("Union" variety)
Method: as §1
(§5) The soil (preemergence) treatment was effected after sowing by pouring aqueous formulations of the active ingredients, at four application rates, onto the surface of the substrate.
as §3, §4

[4] = test system: spring barley; assay: Growth height of spring barley, leaf treatment, Example 11; assay type: in vivo, spring barley ("Union" variety)
Method: as §1, §2, §3, §4

[5] = test system: spring rye; assay: Growth height of spring rye, soil treatment, Example 11; assay type: in vivo, spring rye ("Petkuser" variety)
Method: as §1, §5, §3, §4

[6] = test system: spring rye; assay: Growth height of spring rye, leaf treatment, Example 11; assay type: in vivo, spring rye ("Petkuser" variety)
Method: as §1, §2, §3, §4

[7] = test system: potted vines; assay: Tolerance by potted vines in greenhouse; spray application; assay type: in vivo
Method: (§6) Plastic flowerpots having a volume of 300 cm^3 were filled with a sandy loam and the test plants placed therein (either as seed, as vegetatively reproduced species, or as potted plants, e.g., vines). For preemergence treatment, the active ingredients were suspended or emulsified in water as vehicle and sprayed onto the surface of the soil immediately after sowing by means of finely distributing nozzles. The potted vines were treated by spraying them with the correspondingly diluted liquor. For postemergence treatment, the agents were, as stated above, sprayed in water onto the leaves of the test plants, some liquor also falling onto the soil. In some special cases, solid active ingredients were first dissolved in dimethylformamide and then applied in a total liquor amount of 400 liters of water per hectare. For the postemergence treatment, the plants were first grown to a height of from 3 to 10 cm before being treated. With grasses, the first growth was cut, and the new growth treated 2 to 3 days after cutting. The temperature requirements of the plants were taken into account by placing them in cooler or warmer sections of the greenhouse. The experiments were run for from 4 to 6 weeks, during which time the plants were tended and their reaction to the various treatments was assessed.
(§7) The application rates are given in kg/ha of active ingredient, regardless of the method of application and the amount of water used.
(§8) A 0 to 100 scale was used for the evaluation, 0 denoting normal emergence or no damage (or no inhibition), and 100 denoting non-emergence or complete destruction of the plants. A distinction should be made in the influence on growth between desired changes without any appreciable disadvantageous phytotoxic effects (e.g., purely growth-regulating effects) and those of a phytotoxic herbicical character.

[8] = test system: Arachys hypogaea; assay: Shoot growth, postemergence treatment in the greenhouse (table 25); assay type: in vivo
Method: as §6, §7, §8

[9] = test system: Poa pratensis; assay: as above; assay type: in vivo
Method: as §6, §7, §8

C1C2C3N=NC3C1C1OC21 (stereo not drawn) [drawing 390]
Plant height ([1]; 3 kg/ha): 25.0 cm
Plant height, % of untreated control ([1]; 3 kg/ha): 77.4%
Plant height ([1]; 12 kg/ha): 14.0 cm
Plant height, % of untreated control ([1]; 12 kg/ha): 43.3%

c1ccc(C2=NOC3C4CC(C5N=NC45)C23)cc1 (stereo not drawn) [drawing 391]
Plant height ([1]; 3 kg/ha): 24.5 cm
Plant height, % of untreated control ([1]; 3 kg/ha): 75.9%
Plant height ([1]; 12 kg/ha): 16.0 cm
Plant height, % of untreated control ([1]; 12 kg/ha): 49.5%

c1ccc(C2=NNC3C4CC(C5N=NC45)C23)cc1 (stereo not drawn) [drawing 416]
Plant height ([2]; 0.75 kg/ha): 26.5 cm
Plant height, % of untreated control ([2]; 0.75 kg/ha): 86.0%
Plant height ([2]; 1.50 kg/ha): 25.5 cm
Plant height, % of untreated control ([2]; 1.50 kg/ha): 82.8%
Plant height ([2]; 3.00 kg/ha): 24.0 cm
Plant height, % of untreated control ([2]; 3.00 kg/ha): 77.9%

c1ccc(C2=NNC3C4CC(C5N=NC45)C23)cc1 (stereo not drawn) [drawing 417]
Plant height ([3]; 0.75 kg/ha): 32.0 cm
Plant height, % of untreated control ([3]; 0.75 kg/ha): 97.6%
Plant height ([3]; 1.50 kg/ha): 28.0 cm
Plant height, % of untreated control ([3]; 1.50 kg/ha): 85.4%
Plant height ([3]; 3.00 kg/ha): 27.0 cm
Plant height, % of untreated control ([3]; 3.00 kg/ha): 82.3%
Plant height ([3]; 6.00 kg/ha): 23.0 cm
Plant height, % of untreated control ([3]; 6.00 kg/ha): 70.1%

c1ccc(C2N=NC3C4CC(C5N=NC45)C23)cc1 (stereo not drawn) [drawing 418]
Plant height ([4]; 0.75 kg/ha): 23.5 cm
Plant height, % of untreated control ([4]; 0.75 kg/ha): 84.5%
Plant height ([4]; 1.50 kg/ha): 23.0 cm
Plant height, % of untreated control ([4]; 1.50 kg/ha): 82.7%
Plant height ([4]; 3.00 kg/ha): 21.5 cm
Plant height, % of untreated control ([4]; 3.00 kg/ha): 77.3%

Clc1ccc(NC2C(Cl)C3CC2C2N=NC32)cc1 (stereo not drawn) [drawing 419]
Plant height ([4]; 0.75 kg/ha): 26.0 cm
Plant height, % of untreated control ([4]; 0.75 kg/ha): 93.5%
Plant height ([4]; 1.50 kg/ha): 25.5 cm
Plant height, % of untreated control ([4]; 1.50 kg/ha): 91.7%
Plant height ([4]; 3.00 kg/ha): 23.5 cm
Plant height, % of untreated control ([4]; 3.00 kg/ha): 84.5%

Clc1ccc(NC2C(Cl)C3CC2C2N=NC32)cc1 (stereo not drawn) [drawing 421]
Plant height ([5]; 0.75 kg/ha): 28.0 cm
Plant height, % of untreated control ([5]; 0.75 kg/ha): 86.7%
Plant height ([5]; 1.50 kg/ha): 27.0 cm
Plant height, % of untreated control ([5]; 1.50 kg/ha): 83.5%
Plant height ([5]; 3.00 kg/ha): 25.0 cm
Plant height, % of untreated control ([5]; 3.00 kg/ha): 77.4%
Plant height ([5]; 6.00 kg/ha): 23.0 cm
Plant height, % of untreated control ([5]; 6.00 kg/ha): 71.2%

c1ccc(C2N=NC3C4CC(C5N=NC45)C23)cc1 (stereo not drawn) [drawing 422]
Plant height ([6]; 0.75 kg/ha): 23.0 cm
Plant height, % of untreated control ([6]; 0.75 kg/ha): 80.7%
Plant height ([6]; 1.50 kg/ha): 20.5 cm
Plant height, % of untreated control ([6]; 1.50 kg/ha): 71.9%
Plant height ([6]; 3.00 kg/ha): 20.5 cm
Plant height, % of untreated control ([6]; 3.00 kg/ha): 71.9%

Clc1ccc(NC2C(Cl)C3CC2C2N=NC32)cc1 (stereo not drawn) [drawing 423]
Plant height ([6]; 0.75 kg/ha): 25.5 cm
Plant height, % of untreated control ([6]; 0.75 kg/ha): 89.5%
Plant height ([6]; 1.50 kg/ha): 24.5 cm
Plant height, % of untreated control ([6]; 1.50 kg/ha): 86.0%
Plant height ([6]; 3.00 kg/ha): 24.5 cm
Plant height, % of untreated control ([6]; 3.00 kg/ha): 86.0%

BrC1C(Br)C2CC1C1N=NC21 (stereo not drawn) [drawing 427]
Potted vines - leaf damage ([7]; 4.0 and 8.0 kg/ha): none
Change in shoot growth ([7]; 4.0 kg/ha): 14.7 cm
Change in shoot growth ([7]; 8.0 kg/ha): 13.3 cm

CN(C)NC(=O)CCC(=O)O [drawing 434]
Shoot length ([8]; 1.0 kg/ha): 12 cm
Shoot length ([8]; 2.0 kg/ha): 5 cm
Shoot length ([8]; 4.0 kg/ha): 5 cm
Shoot length ([9]; 1.0 kg/ha): 4 cm
Shoot length ([9]; 2.0 kg/ha): 4 cm
Shoot length ([9]; 4.0 kg/ha): 4 cm
